Data on two compounds can be found in US20110166191A1, “3-(2-amino-ethyl)-5-(3-cyclohexyl-propylidene)-thiazolidine-2,4-dione and its derivatives as multiple signaling pathway inhibitors and for the treatment of cancer” (priority 2010, published 2011).

Data set [1] deals with DU145. As to the kind of experiment: Cell viability assay. The class given is cell-based. To be noted: Homo sapiens, DU-145, DU145 cells, 24 hrs, read-out: Inhibition of cancer cell proliferation IC50. The method, then: (§1) Cells were cultured at a density of 5×10^4 (U937) or 1×10^4 (PC-3, DU145, M12, HT29) cells per well in flat bottomed 96-well plates and treated with various concentrations of test compound at 37° C. (5% CO2). After 24 h, 20 μL of CellTiter 96® Aqueous One Solution Reagent (Promega, Madison, Wis.) was added to each well according to the manufacturer's instructions. After 1 hour, the cell viability was determined by measuring the absorbance at 490 nm using a micro-plate reader.

For data set [2], the system named is M12. As to the kind of experiment: Cell viability assay. The data set is classed as cell-based. The settings on record: M12 cells, 24 hrs, read-out: Inhibition of cancer cell proliferation IC50. The method, then:
as §1

For data set [3], the system named is PC-3. In words: Cell viability assay. The data set is classed as cell-based. The settings on record: Homo sapiens, PC-3 cells, 24 hrs, read-out: Inhibition of cancer cell proliferation IC50. The method, then:
as §1

The test system of data set [4] is U937. As to the kind of experiment: Cell viability assay. The class given is cell-based. To be noted: Homo sapiens, U-937, U937 cells, 24 hrs, read-out: Inhibition of cancer cell proliferation IC50. The method, then: as §1
Data set [5] is described as follows: Toxicity studies in mice. The class given is in vivo. The settings on record: B6C3F1 mice, 20 mg/kg orally, 21 days. The procedure:
Female B6C3F1 mice (12/group) were given example 4 orally at 30 mg/kg, 50 mg/kg and 80 mg/kg dosage or example 820 mg/kg orally for 21 days.

The subject of data set [6] is p-MEK. As to the kind of experiment: Western blot analysis of p-MEK in U937 cells. The class given is cell-based. The settings on record: PMA/TPA 200 nM stimulation. The procedure: FIG. 1. U937 cells were treated with Formula II prepared as described in Example 4 [i.e. 3-(2-aminoethyl)-5-(3-cyclohexylpropylidene)thiazolidine-2,4-dione] for 1 h, then stimulated with PMA (200 nM) for 30 min. Lysates were analyzed for p-Akt, p-MEK, p-ERK and α-tubulin by western blot analysis.
Cells (5×10^5 per ml) were treated with various concentrations of test compound at 37° C. (5% CO2) for 3 hrs, then stimulated with TPA at a final concentration of 200 nM for 20 min. Samples from whole-cell pellets were prepared and 30 μg protein for each condition was subjected to SDS-PAGE, transferred onto a PVDF membrane, and blocked with 5% fat-free milk for 30 min. The membrane is probed with primary antibodies overnight at 4° C. followed by incubation with horseradish peroxidase-labeled anti-mouse IgG (1:5000, BD Biosciecne). The immunoreactive bands are detected by chemiluminescence methods (Pierce) and visualized on Kodak Omat film. The following primary antibodies were used: phospho-p44/42 MAPK (ERK1/2, Thr202/Tyr204), p44/42 MAPK, phospho-p90RSK (Thr359/Ser363), RSK1/RSK2/RSK3 (Cell Signaling). Blots were reprobed with antibodies against α-tubulin to ensure equal loading and transfer of proteins.

Take `NCCN1C(=O)S/C(=C\CCc2ccccc2)C1=O` [Example 8, 3-(2-aminoethyl)-5-(3-phenylpropylidene)thiazolidine-2,4-dione]: the IC50 in data set [1] worked out at 30.8 µM; in data set [2], 14.8 µM; in data set [3], 14.6 µM; in data set [4], 12.2 µM. For the same compound, the “effects on general health and body weight” value in data set [5] was “no effects on general health and body weight were observed”.

Turning to `O=C(NOCC1CC1)c1ccc(F)c(F)c1Nc1ccc(I)cc1Cl` [PD184352, reference compound], the “p-MEK level (western blot)” value in data set [6] is on record as “dose-dependent increase in the p-MEK levels”.
